Test results: patent publication US20240092784A1, “CONDENSED HETEROCYCLIC COMPOUND” (NISSAN CHEMICAL CORPORATION, priority 2020, published 2024)
Where a name gives a salt, the structure may show the parent alone.

Molecular target: human SPR (Homo sapiens (Human), UniProt P35270)
Assay: Evaluation Example 2: Measurement of human SPR inhibitory activity (seven concentrations, sepiapterin absorbance at 420 nm)
Assay type: biochemical
Conditions: Evaluation Example 2, seven concentrations 0.14 nM to 100 nM, 240 minutes at room temperature, read-out: IC50
In short: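 His-tagged full-length human SPR (1-261) was expressed in E. coli and the tag removed. Enzyme at 150 ng/mL in 100 mM Tris-HCl pH 7.5/0.01% BSA was mixed with compound (0.14–100 nM, seven points), 120 μM sepiapterin and 160 μM NADPH, both as added-solution concentrations. After 240 min at room temperature, remaining sepiapterin was read at 420 nm to give percent inhibition.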

Chain of human SPR (P35270 whole entry): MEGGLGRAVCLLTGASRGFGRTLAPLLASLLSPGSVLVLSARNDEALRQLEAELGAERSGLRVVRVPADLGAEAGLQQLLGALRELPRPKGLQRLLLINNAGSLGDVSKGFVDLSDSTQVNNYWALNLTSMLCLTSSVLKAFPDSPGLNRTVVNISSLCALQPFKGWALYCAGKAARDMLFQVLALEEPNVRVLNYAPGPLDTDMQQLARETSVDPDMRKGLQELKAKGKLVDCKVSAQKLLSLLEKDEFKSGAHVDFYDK

| SMILES | IC50 [nM] |
| --- | --- |
| CC(C)Cn1c(=O)c(C(=O)NC2CC2)c(O)n2nc(N)c(/C=C/C(=O)N3[C@@H](C)COC[C@@H]3C)c12 [Synthesis Example 422, 2-Amino-N-cyclopropyl-3-((E)-3-((3S,5S)-3,5-dimethylmorpholino)-3-oxoprop-1-en-1-yl)-7-hydroxy-4-isobutyl-5-oxo-4,5-dihydropyrazolo[1,5-a]pyrimidine-6-carboxamide] | 0.75 |
| CC(C)Cn1c(=O)c(C(=O)NC2CC2)c(O)n2nc(N)c(/C=C/C(=O)N3C4CCCC3COC4)c12 [Synthesis Example 423, (E)-3-(3-(3-Oxa-9-azabicyclo[3.3.1]nonan-9-yl)-3-oxoprop-1-en-1-yl)-2-amino-N-cyclopropyl-7-hydroxy-4-isobutyl-5-oxo-4,5-dihydropyrazolo[1,5-a]pyrimidine-6-carboxamide hydrochloride] | 0.71 |
| CC(C)(C)Cn1c(=O)c(C(=O)NC2CC2)c(O)n2nc(NC(N)=O)c(/C=C/C(=O)N3CCOCC3)c12 [Synthesis Example 424, (E)-N-Cyclopropyl-7-hydroxy-3-(3-morpholino-3-oxoprop-1-en-1-yl)-4-neopentyl-5-oxo-2-ureido-4,5-dihydropyrazolo[1,5-a]pyrimidine-6-carboxamide] | 0.67 |
| COC(=O)Nc1nn2c(O)c(C(=O)NC3CC3)c(=O)n(CC(C)C)c2c1/C=C/C(=O)N1CCOCC1 [Synthesis Example 425, Methyl (E)-(6-(cyclopropylcarbamoyl)-7-hydroxy-4-isobutyl-3-(3-morpholino-3-oxoprop-1-en-1-yl)-5-oxo-4,5-dihydropyrazolo[1,5-a]pyrimidin-2-yl)carbamate] | 0.77 |
| CNc1nn2c(O)c(C(=O)NC3CC3)c(=O)n(CC(C)C)c2c1/C=C/C(=O)N1CCCC1 [Synthesis Example 427, (E)-N-Cyclopropyl-7-hydroxy-4-isobutyl-2-(methylamino)-5-oxo-3-(3-oxo-3-(pyrrolidin-1-yl)prop-1-en-1-yl)-4,5-dihydropyrazolo[1,5-a]pyrimidine-6-carboxamide] | 0.95 |
| CNc1nn2c(O)c(C(=O)NC3CC3)c(=O)n(CC(C)C)c2c1/C=C/C(=O)N1CCC(F)(F)C1 [Synthesis Example 428, (E)-N-Cyclopropyl-3-(3-(3,3-difluoropyrrolidin-1-yl)-3-oxoprop-1-en-1-yl)-7-hydroxy-4-isobutyl-2-(methylamino)-5-oxo-4,5-dihydropyrazolo[1,5-a]pyrimidine-6-carboxamide] | 0.84 |
| CNc1nn2c(O)c(C(=O)NC3CC3)c(=O)n(CC(C)C)c2c1/C=C/C(=O)N1CC[C@H](F)C1 [Synthesis Example 429, (S,E)-N-Cyclopropyl-3-(3-(3-fluoropyrrolidin-1-yl)-3-oxoprop-1-en-1-yl)-7-hydroxy-4-isobutyl-2-(methylamino)-5-oxo-4,5-dihydropyrazolo[1,5-a]pyrimidine-6-carboxamide] | 0.8 |
| CNc1nn2c(O)c(C(=O)NC3CC3)c(=O)n(CC(C)C)c2c1/C=C/C(=O)N1CCOC[C@@H]1C [Synthesis Example 430, (S,E)-N-Cyclopropyl-7-hydroxy-4-isobutyl-2-(methylamino)-3-(3-(3-methylmorpholino)-3-oxoprop-1-en-1-yl)-5-oxo-4,5-dihydropyrazolo[1,5-a]pyrimidine-6-carboxamide] | 0.92 |
| CNc1nn2c(O)c(C(=O)NC3CC3)c(=O)n(CC(C)C)c2c1/C=C/C(=O)N1CC2CCC(C1)O2 [Synthesis Example 431, (E)-3-(3-(8-Oxa-3-azabicyclo[3.2.1]octan-3-yl)-3-oxoprop-1-en-1-yl)-N-cyclopropyl-7-hydroxy-4-isobutyl-2-(methylamino)-5-oxo-4,5-dihydropyrazolo[1,5-a]pyrimidine-6-carboxamide] | 0.81 |
| CNc1nn2c(O)c(C(=O)NC3CC3)c(=O)n(CC(C)C)c2c1/C=C/C(=O)N1[C@@H](C)COC[C@@H]1C [Synthesis Example 432, N-Cyclopropyl-3-((E)-3-((3S,5S)-3,5-dimethylmorpholino)-3-oxoprop-1-en-1-yl)-7-hydroxy-4-isobutyl-2-(methylamino)-5-oxo-4,5-dihydropyrazolo[1,5-a]pyrimidine-6-carboxamide] | 0.66 |
